Experimental findings from US20260356830A1, “COMPOUNDS FOR MODULATING RET PROTEIN” (Bristol-Myers Squibb Company, priority 2022, published 2026) are described below.

This test has as its target T1, CCDC6-RET (Homo sapiens, UniProt P07949+Q16204+Q96SW2).
T1 construct: CCDC6 (natural N-terminal fusion partner, UniProt Q16204); endogenous in cells; host or cells: TPC-1 (parental, papillary thyroid carcinoma)
Briefly: Cellular RET degradation, AlphaLISA, TPC-1 cell line. Format: cell-based. The following applies: for Dmax: TPC1, human, 24 h, read-out: Cell Density TPC-1/CCDC6-RET Ymax %; for DC50: read-out: Cell Density TPC-1/CCDC6-RET DC50, half-maximal degradation concentration, TPC-1 (CCDC6-RET), 24 hrs. The procedure: Cellular RET degradation compound potency was determined using the bead-based luminescent amplification assay-AlphaLISA Surefire Ultra Detection Kit (Perkin-Elmer). The CCDC6-RET fusion expressing papillary thyroid carcinoma (TPC-1) cell line was selected for screening of potential degraders: Parental (TPC-1/CCDC6-RET). Cells were plated in 384 well culture plates (Greiner Bio-One) at 10,000 cells/well in 50 ul/well DMEM (Fisher Scientific) with 2% FBS serum (Gibco). […] Low normalization wells were media only and high normalization wells were cells treated with DMSO only. Treated cell plates were placed in an incubator at 37 °C and 5% CO2 for 24 hrs. At 24 hrs, cell media was removed by a FELIX automated liquid hander (Analytik Jena) and 25 ul of cell lysis buffer (provided in AlphaLisa kit) was added to each well. […] cell lysate were transferred into a 384-well microplate (Perkin Elmer) before addition of 2.5 ul AlphaLISA Acceptor Bead mix. The plates were sealed and kept at room temperature for 1 hr before addition of donor bead mixture. Donor bead addition was performed in the dark and incubated for >1 hr before AlphaLISA luminescence was measured on an Envision plate reader with an Alphascreen aperture at RT (excitation 680 nm, emission 615 nm). RET protein abundance (and therefore degradation) directly corresponds to luminescence intensity.
Intensities were normalized relative to the average values from 16 wells containing media alone (blank-low) and 16 wells containing cells +DMSO (high). % Degradation for each well was determined using the standard equation, where
DC50 (IC50) values for each compound tested are calculated by analyzing plots of % degradation versus compound concentration, and fitting to the standard 4-parameter logistic curve where,
DC50 values are calculated according to the relationship,
Compound replicates were performed in independent assays. Maximum degradation (YMax) was defined as the maximal % degradation value from the 4-parameter logistic equation, as previously described.

T1 sequence (Q16204+P07949 fused): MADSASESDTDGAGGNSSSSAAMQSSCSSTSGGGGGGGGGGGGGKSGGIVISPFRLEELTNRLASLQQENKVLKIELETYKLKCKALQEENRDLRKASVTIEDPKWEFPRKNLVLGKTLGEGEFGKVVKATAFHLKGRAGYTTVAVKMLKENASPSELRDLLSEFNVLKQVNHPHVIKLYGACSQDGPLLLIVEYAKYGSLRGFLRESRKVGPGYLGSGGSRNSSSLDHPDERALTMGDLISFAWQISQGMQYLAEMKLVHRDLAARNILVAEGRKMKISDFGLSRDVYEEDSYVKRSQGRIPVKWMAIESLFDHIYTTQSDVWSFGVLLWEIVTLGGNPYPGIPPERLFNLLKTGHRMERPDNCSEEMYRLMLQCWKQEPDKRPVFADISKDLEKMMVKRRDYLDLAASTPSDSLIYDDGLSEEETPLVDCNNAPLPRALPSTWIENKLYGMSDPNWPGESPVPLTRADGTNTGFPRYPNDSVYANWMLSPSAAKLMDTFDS
T1 sequence (Q96SW2 whole entry, the tested form may be a part): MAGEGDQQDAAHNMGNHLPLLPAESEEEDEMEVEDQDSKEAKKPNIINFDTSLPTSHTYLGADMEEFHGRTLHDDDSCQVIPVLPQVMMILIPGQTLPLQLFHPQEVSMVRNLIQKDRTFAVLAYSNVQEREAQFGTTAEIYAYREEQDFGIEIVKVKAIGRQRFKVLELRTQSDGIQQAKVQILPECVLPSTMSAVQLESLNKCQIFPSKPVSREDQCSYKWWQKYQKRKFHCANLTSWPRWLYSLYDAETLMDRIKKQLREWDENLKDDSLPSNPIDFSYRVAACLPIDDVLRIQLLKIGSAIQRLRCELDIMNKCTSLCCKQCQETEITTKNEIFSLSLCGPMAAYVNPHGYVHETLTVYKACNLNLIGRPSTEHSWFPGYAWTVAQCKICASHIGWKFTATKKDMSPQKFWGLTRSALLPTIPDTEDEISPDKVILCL
T1 sequence (Q16531 whole entry partner, the tested form may be a part): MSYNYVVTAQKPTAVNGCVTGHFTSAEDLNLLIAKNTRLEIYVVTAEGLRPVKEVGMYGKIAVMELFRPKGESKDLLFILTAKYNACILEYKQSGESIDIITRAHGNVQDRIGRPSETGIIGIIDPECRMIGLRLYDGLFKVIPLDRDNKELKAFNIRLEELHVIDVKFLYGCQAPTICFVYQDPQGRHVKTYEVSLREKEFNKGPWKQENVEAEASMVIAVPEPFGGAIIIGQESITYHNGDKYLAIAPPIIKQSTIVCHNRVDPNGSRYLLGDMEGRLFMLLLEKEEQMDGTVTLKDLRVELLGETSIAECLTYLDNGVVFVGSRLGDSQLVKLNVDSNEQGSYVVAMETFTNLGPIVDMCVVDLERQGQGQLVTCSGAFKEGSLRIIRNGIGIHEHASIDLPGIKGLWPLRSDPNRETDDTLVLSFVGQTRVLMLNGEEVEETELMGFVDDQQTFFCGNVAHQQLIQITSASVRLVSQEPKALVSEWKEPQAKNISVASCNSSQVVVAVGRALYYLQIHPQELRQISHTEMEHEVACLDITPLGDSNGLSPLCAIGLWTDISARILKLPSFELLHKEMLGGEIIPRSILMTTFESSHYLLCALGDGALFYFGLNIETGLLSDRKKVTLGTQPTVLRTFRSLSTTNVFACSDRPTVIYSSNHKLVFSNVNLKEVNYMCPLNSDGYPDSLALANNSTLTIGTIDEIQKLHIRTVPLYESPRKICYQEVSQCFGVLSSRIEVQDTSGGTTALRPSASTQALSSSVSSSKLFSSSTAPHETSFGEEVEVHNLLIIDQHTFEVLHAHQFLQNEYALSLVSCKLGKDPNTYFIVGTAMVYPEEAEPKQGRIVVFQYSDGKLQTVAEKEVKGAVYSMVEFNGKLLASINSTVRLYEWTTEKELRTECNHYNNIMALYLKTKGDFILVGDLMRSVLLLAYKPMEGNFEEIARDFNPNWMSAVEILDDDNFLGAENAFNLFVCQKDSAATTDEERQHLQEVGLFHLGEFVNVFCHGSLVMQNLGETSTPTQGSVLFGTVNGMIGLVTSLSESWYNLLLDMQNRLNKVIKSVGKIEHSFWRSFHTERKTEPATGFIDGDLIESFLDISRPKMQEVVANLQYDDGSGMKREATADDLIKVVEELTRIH

As for `CCOc1cc(-c2ccc(N3CCC(NC(=O)c4cc(F)ccc4F)(C(=O)NCCCCN4CCN(c5ccc6c(c5)C(=O)N(C5CCC(=O)NC5=O)C6)CC4)CC3)nc2)c2c(C#N)cnn2c1` (stereo not shown) [Example 159, 1-(5-{3-cyano-6-ethoxypyrazolo[1,5-a]pyridin-4-yl}pyridin-2-yl)-4-(2,5-difluorobenzamido)-N-(4-{4-[2-(2,6-dioxopiperidin-3-yl)-3-oxo-2,3-dihydro-1H-isoindol-5-yl]piperazin-1-yl}butyl)piperidine-4-carboxamide], the Dmax lay within 60 to 90% and the DC50 lay within 2 to 10 nM.

For the molecule `CCOc1cc(-c2ccc(N3CCC(CN4CCC5(CCC(CC(=O)N6CCN(c7ccc8c(c7)C(=O)N(C7CCC(=O)NC7=O)C8)CC6)CC5)CC4)(NC(=O)c4cc(F)ccc4F)CC3)nc2)c2c(C#N)cnn2c1` (stereo not shown) [Example 123, N-[1-(5-{3-cyano-6-ethoxypyrazolo[1,5-a]pyridin-4-yl}pyridin-2-yl)-4-{[9-(2-{4-[2-(2,6-dioxopiperidin-3-yl)-3-oxo-2,3-dihydro-1H-isoindol-5-yl]piperazin-1-yl}-2-oxoethyl)-3-azaspiro[5.5]undecan-3-yl]methyl}piperidin-4-yl]-2,5-difluorobenzamide], the Dmax was above 90% and the DC50 lay in the range of 2 to 10 nM.

On to `CCOc1cc(-c2ccc(N3CCC(Cc4ccccc4)(NC(=O)CN4CCC(CN5CCC(c6ccc7c(c6)C(=O)N(C6CCC(=O)NC6=O)C7)CC5)CC4)CC3)nc2)c2c(C#N)cnn2c1` (stereo not shown) [Example 57, N-[4-benzyl-1-[5-(3-cyano-6-ethoxy-pyrazolo[1,5-a]pyridin-4-yl)-2-pyridyl]-4-piperidyl]-2-[4-[[4-[2-(2,6-dioxo-3-piperidyl)-3-oxo-isoindolin-5-yl]-1-piperidyl]methyl]-1-piperidyl]acetamide], for which the Dmax is 60 to 90% and the DC50 was in the range of 100 to 2000 nM.

`CCOc1cc(-c2ccc(N3CCC(CN4CCC5(CC4)CCN(C(=O)c4ccc6c(c4)C(=O)N(C4CCC(=O)NC4=O)C6)CC5)(NC(=O)c4cc(F)ccc4F)CC3)nc2)c2c(C#N)cnn2c1` (stereo not shown) [Example 96, N-[1-(5-{3-cyano-6-ethoxypyrazolo[1,5-a]pyridin-4-yl}pyridin-2-yl)-4-({9-[2-(2,6-dioxopiperidin-3-yl)-3-oxo-2,3-dihydro-1H-isoindole-5-carbonyl]-3,9-diazaspiro[5.5]undecan-3-yl}methyl)piperidin-4-yl]-2,5-difluorobenzamide]: the Dmax lay in the range of 60 to 90% and the DC50 fell in the range of 10 to 100 nM.

As to `CCOc1cc(-c2ccc(N3CCC(CN4CCN(C(=O)CCCCN5CCC(c6ccc7c(c6)C(=O)N(C6CCC(=O)NC6=O)C7)CC5)CC4)(NC(=O)c4cc(F)ccc4F)CC3)nc2)c2c(C#N)cnn2c1` (stereo not shown) [Example 18, N-[1-(5-{3-cyano-6-ethoxypyrazolo[1,5-a]pyridin-4-yl}pyridin-2-yl)-4-{[4-(5-{4-[2-(2,6-dioxopiperidin-3-yl)-3-oxo-2,3-dihydro-1H-isoindol-5-yl]piperidin-1-yl}pentanoyl)piperazin-1-yl]methyl}piperidin-4-yl]-2,5-difluorobenzamide], the Dmax was above 90% and the DC50 is below 2 nM.

On to `CCOc1cc(-c2ccc(N3CCC(CN4CCN(C5CN(C(=O)COc6ccc7c(c6)CN(C6CCC(=O)NC6=O)C7=O)C5)CC4)(NC(=O)c4cc(F)ccc4F)CC3)nc2)c2c(C#N)cnn2c1` (stereo not shown) [Example 65, N-[1-(5-{3-cyano-6-ethoxypyrazolo[1,5-a]pyridin-4-yl}pyridin-2-yl)-4-({4-[1-(2-{[2-(2,6-dioxopiperidin-3-yl)-1-oxo-2,3-dihydro-1H-isoindol-5-yl]oxy}acetyl)azetidin-3-yl]piperazin-1-yl}methyl)piperidin-4-yl]-2,5-difluorobenzamide], for which the Dmax was 60 to 90% and the DC50 is 2 to 10 nM.

With `CCOc1cc(-c2ccc(N3CCC(Cc4ccccc4)(NC(=O)CN4CCN(C(=O)CCN5CCC(c6ccc7c(c6)C(=O)N(C6CCC(=O)NC6=O)C7)CC5)CC4)CC3)nc2)c2c(C#N)cnn2c1` (stereo not shown) [Example 53, N-[4-benzyl-1-[5-(3-cyano-6-ethoxy-pyrazolo[1,5-a]pyridin-4-yl)-2-pyridyl]-4-piperidyl]-2-[4-[3-[4-[2-(2,6-dioxo-3-piperidyl)-3-oxo-isoindolin-5-yl]-1-piperidyl]propanoyl]piperazin-1-yl]acetamide], the Dmax is 60 to 90% and the DC50 lay within 10 to 100 nM.

Regarding `CCOc1cc(-c2ccc(N3CCC(NC(=O)c4cc(F)ccc4F)(C(=O)NCCCCCCN4CCN(c5ccc6c(c5)CN(C5CCC(=O)NC5=O)C6=O)CC4)CC3)nc2)c2c(C#N)cnn2c1` (stereo not shown) [Example 155, 1-(5-{3-cyano-6-ethoxypyrazolo[1,5-a]pyridin-4-yl}pyridin-2-yl)-4-(2,5-difluorobenzamido)-N-(6-{4-[2-(2,6-dioxopiperidin-3-yl)-1-oxo-2,3-dihydro-1H-isoindol-5-yl]piperazin-1-yl}hexyl)piperidine-4-carboxamide], the Dmax was in the range of 60 to 90% and the DC50 was below 2 nM.

For `CCOc1cc(-c2ccc(N3CCC(COCC(=O)NCCCCCCN4CCN(c5ccc6c(c5)CN(C5CCC(=O)NC5=O)C6=O)CC4)(NC(=O)c4cc(F)ccc4F)CC3)nc2)c2c(C#N)cnn2c1` (stereo not shown) [Example 38, N-[1-[5-(3-cyano-6-ethoxy-pyrazolo[1,5-a]pyridin-4-yl)-2-pyridyl]-4-[[2-[6-[4-[2-(2,6-dioxo-3-piperidyl)-1-oxo-isoindolin-5-yl]piperazin-1-yl]hexylamino]-2-oxo-ethoxy]methyl]-4-piperidyl]-2,5-difluoro-benzamide], the Dmax is above 90% and the DC50 is below 2 nM.

Take `CCOc1cc(-c2ccc(N3CCC(CN4CC5(C4)CN(C(=O)COc4ccc6c(c4)CN(C4CCC(=O)NC4=O)C6=O)C5)(NC(=O)c4cc(F)ccc4F)CC3)nc2)c2c(C#N)cnn2c1` (stereo not shown) [Example 97, N-[1-(5-{3-cyano-6-ethoxypyrazolo[1,5-a]pyridin-4-yl}pyridin-2-yl)-4-{[6-(2-{[2-(2,6-dioxopiperidin-3-yl)-1-oxo-2,3-dihydro-1H-isoindol-5-yl]oxy}acetyl)-2,6-diazaspiro[3.3]heptan-2-yl]methyl}piperidin-4-yl]-2,5-difluorobenzamide]: the Dmax lay within 60 to 90% and the DC50 was in the range of 2 to 10 nM.

In the case of `CCOc1cc(-c2ccc(N3CCC(C)(CN4CCN(C(=O)CCCCCCN5CCN(c6ccc7c(c6)CN(C6CCC(=O)NC6=O)C7=O)CC5)CC4)CC3)nc2)c2c(C#N)cnn2c1` (stereo not shown) [Example 128, 4-[6-(4-{[4-(7-{4-[2-(2,6-dioxopiperidin-3-yl)-1-oxo-2,3-dihydro-1H-isoindol-5-yl]piperazin-1-yl}heptanoyl)piperazin-1-yl]methyl}-4-methylpiperidin-1-yl)pyridin-3-yl]-6-ethoxypyrazolo[1,5-a]pyridine-3-carbonitrile], the Dmax lay in the range of 60 to 90% and the DC50 is 100 to 2000 nM.

Regarding `CCOc1cc(-c2ccc(N3CCC(CN4CCN(C(=O)C5CC6(C5)CC(C(=O)N5CCN(c7ccc8c(c7)CN(C7CCC(=O)NC7=O)C8=O)CC5)C6)CC4)(NC(=O)c4cc(F)ccc4F)CC3)nc2)c2c(C#N)cnn2c1` (stereo not shown) [Example 85, N-[1-(5-{3-cyano-6-ethoxypyrazolo[1,5-a]pyridin-4-yl}pyridin-2-yl)-4-{[4-(6-{4-[2-(2,6-dioxopiperidin-3-yl)-1-oxo-2,3-dihydro-1H-isoindol-5-yl]piperazine-1-carbonyl}spiro[3.3]heptane-2-carbonyl)piperazin-1-yl]methyl}piperidin-4-yl]-2,5-difluorobenzamide], the Dmax lay within 60 to 90% and the DC50 is below 2 nM.

`CCOc1cc(-c2ccc(N3CCC(CN4CCN(CCOCCC(=O)N5CCN(c6ccc7c(c6)C(=O)N(C6CCC(=O)NC6=O)C7)CC5)CC4)(NC(=O)c4cc(F)ccc4F)CC3)nc2)c2c(C#N)cnn2c1` (stereo not shown) [Example 103, N-[1-(5-{3-cyano-6-ethoxypyrazolo[1,5-a]pyridin-4-yl}pyridin-2-yl)-4-({4-[2-(3-{4-[2-(2,6-dioxopiperidin-3-yl)-3-oxo-2,3-dihydro-1H-isoindol-5-yl]piperazin-1-yl}-3-oxopropoxy)ethyl]piperazin-1-yl}methyl)piperidin-4-yl]-2,5-difluorobenzamide]: the Dmax was above 90% and the DC50 fell in the range of 10 to 100 nM.

Regarding `CCOc1cc(-c2ccc(N3CCC(CN4CCN(C(=O)CCCCCCN5CCC(c6ccc7c(c6)C(=O)N(C6CCC(=O)NC6=O)C7)CC5)CC4)(NC(=O)c4cc(F)ccc4F)CC3)nc2)c2c(C#N)cnn2c1` (stereo not shown) [Example 19, N-[1-(5-{3-cyano-6-ethoxypyrazolo[1,5-a]pyridin-4-yl}pyridin-2-yl)-4-{[4-(7-{4-[2-(2,6-dioxopiperidin-3-yl)-3-oxo-2,3-dihydro-1H-isoindol-5-yl]piperidin-1-yl}heptanoyl)piperazin-1-yl]methyl}piperidin-4-yl]-2,5-difluorobenzamide], the Dmax was above 90% and the DC50 was in the range of 2 to 10 nM.
